Where a SMILES comes first, the peptide text is derived from it. Bridges are numbered along the chain shown (N, C = ends).
target: human α7-containing nAChRs (Homo sapiens, UniProt P36544); test: cell-based; format: cell-based; details: not given
Sequence (P36544 23-502 limits assumed): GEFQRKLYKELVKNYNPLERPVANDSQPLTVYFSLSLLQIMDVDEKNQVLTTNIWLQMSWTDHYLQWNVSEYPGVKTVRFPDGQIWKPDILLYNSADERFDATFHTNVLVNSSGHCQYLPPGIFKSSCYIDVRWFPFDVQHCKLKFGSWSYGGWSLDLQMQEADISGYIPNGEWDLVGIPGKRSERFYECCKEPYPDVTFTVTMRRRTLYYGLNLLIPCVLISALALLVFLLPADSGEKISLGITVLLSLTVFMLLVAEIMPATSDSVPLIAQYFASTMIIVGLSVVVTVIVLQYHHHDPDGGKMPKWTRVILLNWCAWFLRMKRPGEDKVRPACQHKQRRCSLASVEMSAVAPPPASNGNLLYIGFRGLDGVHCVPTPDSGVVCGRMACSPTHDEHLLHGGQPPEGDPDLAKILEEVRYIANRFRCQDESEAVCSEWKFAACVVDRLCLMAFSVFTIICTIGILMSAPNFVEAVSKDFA

Structure (SMILES) | IC50 [µM] | Ratio (IC50 ratio between gAusIA/rAusIA and its corresponding analogues) | antagonistic activity / potency at α7-containing nAChRs in words
CC(C)[C@H](NC(=O)[C@@H]1CSSC[C@@H]2NC(=O)[C@@H](NC(=O)[C@@H](N)CO)CSSC[C@H](NC(=O)[C@H](C)NC(=O)[C@H](C)NC(=O)[C@H](CC(N)=O)NC(=O)[C@H](CCCNC(=N)N)NC(=O)[C@H](C)NC2=O)C(=O)N[C@@H](CCCNC(=N)N)C(=O)N[C@@H](Cc2c[nH]cn2)C(=O)N[C@@H](CC(N)=O)C(=O)N[C@@H](Cc2c[nH]cn2)C(=O)N2CCC[C@H]2C(=O)N1)C(N)=O [gAusIA [P7A]] (H-SCCARNAACRHNHPCV-NH2; disulfide 2-9, 3-15) | > 100 | – | –
CC(C)[C@H](NC(=O)[C@@H]1CSSC[C@@H]2NC(=O)[C@@H](NC(=O)[C@@H](N)CO)CSSC[C@H](NC(=O)[C@H](C)NC(=O)[C@@H]3CCCN3C(=O)[C@H](CC(N)=O)NC(=O)[C@H](CO)NC(=O)[C@H](C)NC2=O)C(=O)N[C@@H](CCCNC(=N)N)C(=O)N[C@@H](Cc2c[nH]cn2)C(=O)N[C@@H](CC(N)=O)C(=O)N[C@@H](Cc2c[nH]cn2)C(=O)N2CCC[C@H]2C(=O)N1)C(N)=O [gAusIA [R5S]] (H-SCCASNPACRHNHPCV-NH2; disulfide 2-9, 3-15) | > 100 | – | –
CC(C)[C@H](NC(=O)[C@@H]1CSSC[C@@H]2NC(=O)[C@@H](NC(=O)CN)CSSC[C@H](NC(=O)[C@H](C)NC(=O)[C@@H]3CCCN3C(=O)[C@H](CC(N)=O)NC(=O)[C@H](CCCNC(=N)N)NC(=O)[C@H](C)NC2=O)C(=O)N[C@@H](CCCNC(=N)N)C(=O)N[C@@H](Cc2c[nH]cn2)C(=O)N[C@@H](CC(N)=O)C(=O)N[C@@H](Cc2c[nH]cn2)C(=O)N2CCC[C@H]2C(=O)N1)C(N)=O [gAusIA [S1G]] (H-GCCARNPACRHNHPCV-NH2; disulfide 2-9, 3-15) | – | 0.70 | comparable potency to gAusIA
CC(C)[C@H](NC(=O)[C@@H]1CSSC[C@H](NC(=O)[C@@H](N)CO)C(=O)N[C@H]2CSSC[C@H](NC(=O)[C@H](C)NC(=O)[C@@H]3CCCN3C(=O)[C@H](CC(N)=O)NC(=O)[C@H](CCCNC(=N)N)NC(=O)[C@H](C)NC2=O)C(=O)N[C@@H](C)C(=O)N[C@@H](Cc2c[nH]cn2)C(=O)N[C@@H](CC(N)=O)C(=O)N[C@@H](Cc2c[nH]cn2)C(=O)N2CCC[C@H]2C(=O)N1)C(N)=O [rAusIA [R10A]] (H-SCCARNPACAHNHPCV-NH2; disulfide 2-15, 3-9) | > 100 | – | –
CC(C)[C@H](NC(=O)[C@@H]1CSSC[C@@H]2NC(=O)[C@@H](NC(=O)[C@@H](N)CO)CSSC[C@H](NC(=O)[C@H](C)NC(=O)[C@@H]3CCCN3C(=O)[C@H](CC(N)=O)NC(=O)[C@H](CCCNC(=N)N)NC(=O)[C@H](C)NC2=O)C(=O)N[C@@H](C)C(=O)N[C@@H](Cc2c[nH]cn2)C(=O)N[C@@H](CC(N)=O)C(=O)N[C@@H](Cc2c[nH]cn2)C(=O)N2CCC[C@H]2C(=O)N1)C(N)=O [gAusIA [R10A]] (H-SCCARNPACAHNHPCV-NH2; disulfide 2-9, 3-15) | > 100 | – | –
CC(C)[C@H](NC(=O)[C@@H]1CSSC[C@H](NC(=O)[C@@H](N)CO)C(=O)N[C@H]2CSSC[C@H](NC(=O)[C@H](C)NC(=O)[C@@H]3CCCN3C(=O)[C@H](CC(N)=O)NC(=O)[C@H](C)NC(=O)[C@H](C)NC2=O)C(=O)N[C@@H](CCCNC(=N)N)C(=O)N[C@@H](Cc2c[nH]cn2)C(=O)N[C@@H](CC(N)=O)C(=O)N[C@@H](Cc2c[nH]cn2)C(=O)N2CCC[C@H]2C(=O)N1)C(N)=O [rAusIA [R5A]] (H-SCCAANPACRHNHPCV-NH2; disulfide 2-15, 3-9) | > 100 | – | –
CC(C)C[C@@H]1NC(=O)[C@H](CCCNC(=N)N)NC(=O)[C@@H]2CSSC[C@H](NC(=O)[C@@H](N)CO)C(=O)N[C@@H](CSSC[C@@H](C(=O)N[C@H](C(N)=O)C(C)C)NC(=O)[C@@H]3CCCN3C(=O)[C@H](Cc3c[nH]cn3)NC(=O)[C@H](CC(N)=O)NC1=O)C(=O)N[C@@H](C)C(=O)N[C@@H](CCCNC(=N)N)C(=O)N[C@@H](CC(N)=O)C(=O)N1CCC[C@H]1C(=O)N[C@@H](C)C(=O)N2 [gAusIA [H11L]] (H-SCCARNPACRLNHPCV-NH2; disulfide 2-9, 3-15) | > 100 | – | inactive

same assay, conditions: SEM

Structure (SMILES) | IC50 [µM]
CC[C@H](C)[C@@H]1NC(=O)[C@H](CC(N)=O)NC(=O)[C@@H]2CCCN2C(=O)[C@H](CC(N)=O)NC(=O)[C@H](CC(N)=O)NC(=O)[C@H](C(C)C)NC(=O)[C@H](CCCNC(=N)N)NC(=O)[C@@H]2CSSC[C@H](NC(=O)[C@@H](NC(=O)CNC(=O)[C@@H](N)CO)CSSC[C@@H](C(N)=O)NC1=O)C(=O)N[C@@H](C)C(=O)N[C@@H](CO)C(=O)N[C@@H](CC(N)=O)C(=O)N1CCC[C@H]1C(=O)N[C@@H](C)C(=O)N2 [rLsIA [∇A5]] (H-SGCCASNPACRVNNPNIC-NH2; disulfide 3-18, 4-10) | 57 ± 14.7
C[C@@H]1NC(=O)[C@@H]2CSSC[C@@H](C(N)=O)NC(=O)[C@@H]3CCCN3C(=O)[C@H](Cc3c[nH]cn3)NC(=O)[C@H](CC(N)=O)NC(=O)[C@H](Cc3c[nH]cn3)NC(=O)[C@H](CCCNC(=N)N)NC(=O)[C@H](CSSC[C@H](NC(=O)[C@@H](N)CO)C(=O)N2)NC(=O)[C@H](C)NC(=O)[C@@H]2CCCN2C(=O)[C@H](CC(N)=O)NC(=O)[C@H](CCCNC(=N)N)NC1=O [gAusIA [∆16]] (H-SCCARNPACRHNHPC-NH2; disulfide 2-9, 3-15) | 12 ± 2.3
CC[C@H](C)[C@@H]1NC(=O)[C@H](CC(N)=O)NC(=O)[C@@H]2CCCN2C(=O)[C@H](CC(N)=O)NC(=O)[C@H](CC(N)=O)NC(=O)[C@H](C(C)C)NC(=O)[C@H](CCCNC(=N)N)NC(=O)[C@@H]2CSSC[C@H](NC(=O)[C@@H](NC(=O)CNC(=O)[C@@H](N)CO)CSSC[C@@H](C(N)=O)NC1=O)C(=O)N[C@@H](CCCNC(=N)N)C(=O)N[C@@H](CC(N)=O)C(=O)N1CCC[C@H]1C(=O)N[C@@H](C)C(=O)N2 [rLsIA [S5R]] (H-SGCCRNPACRVNNPNIC-NH2; disulfide 3-17, 4-9) | 27 ± 5.3
CC(C)[C@H](NC(=O)[C@@H]1CSSC[C@H](NC(=O)[C@@H](N)CO)C(=O)N[C@H]2CSSC[C@H](NC(=O)[C@H](C)NC(=O)[C@@H]3CCCN3C(=O)[C@H](CC(N)=O)NC(=O)[C@H](CO)NC(=O)[C@H](C)NC2=O)C(=O)N[C@@H](CCCNC(=N)N)C(=O)N[C@@H](Cc2c[nH]cn2)C(=O)N[C@@H](CC(N)=O)C(=O)N[C@@H](Cc2c[nH]cn2)C(=O)N2CCC[C@H]2C(=O)N1)C(N)=O [rAusIA [R5S]] (H-SCCASNPACRHNHPCV-NH2; disulfide 2-15, 3-9) | 70 ± 10
CC[C@H](C)[C@@H]1NC(=O)[C@H](CC(N)=O)NC(=O)[C@@H]2CCCN2C(=O)[C@H](CC(N)=O)NC(=O)[C@H](CC(N)=O)NC(=O)[C@H](C(C)C)NC(=O)[C@H](CCCNC(=N)N)NC(=O)[C@@H]2CSSC[C@H](NC(=O)CNC(=O)[C@@H](N)CO)C(=O)N[C@@H](CSSC[C@@H](C(N)=O)NC1=O)C(=O)N[C@@H](C)C(=O)N[C@@H](CO)C(=O)N[C@@H](CC(N)=O)C(=O)N1CCC[C@H]1C(=O)N[C@@H](C)C(=O)N2 [gLsIA [∇A5]] (H-SGCCASNPACRVNNPNIC-NH2; disulfide 3-10, 4-18) | 48 ± 13.2
CC(C)[C@H](NC(=O)[C@@H]1CSSC[C@@H]2NC(=O)[C@@H](NC(=O)[C@@H](N)CO)CSSC[C@H](NC(=O)[C@H](C)NC(=O)[C@@H]3CCCN3C(=O)[C@H](CC(N)=O)NC(=O)[C@H](CO)NC2=O)C(=O)N[C@@H](CCCNC(=N)N)C(=O)N[C@@H](Cc2c[nH]cn2)C(=O)N[C@@H](CC(N)=O)C(=O)N[C@@H](Cc2c[nH]cn2)C(=O)N2CCC[C@H]2C(=O)N1)C(N)=O [gAusIA [A4S ∆5]] (H-SCCSNPACRHNHPCV-NH2; disulfide 2-8, 3-14) | 0.428 ± 0.112
C[C@@H]1NC(=O)[C@@H]2CSSC[C@@H](C(N)=O)NC(=O)[C@@H]3CCCN3C(=O)[C@H](Cc3c[nH]cn3)NC(=O)[C@H](CC(N)=O)NC(=O)[C@H](Cc3c[nH]cn3)NC(=O)[C@H](CCCNC(=N)N)NC(=O)[C@H](CSSC[C@H](NC(=O)[C@@H](N)CO)C(=O)N2)NC(=O)[C@H](C)NC(=O)[C@@H]2CCCN2C(=O)[C@H](CC(N)=O)NC1=O [gAusIA [∆5 ∆16]] (H-SCCANPACRHNHPC-NH2; disulfide 2-8, 3-14) | 0.241 ± 0.062
CC(C)[C@H](NC(=O)[C@@H]1CSSC[C@@H]2NC(=O)[C@@H](NC(=O)[C@@H](N)CO)CSSC[C@H](NC(=O)[C@H](C)NC(=O)[C@@H]3CCCN3C(=O)[C@H](CC(N)=O)NC(=O)[C@H](CCCNC(=N)N)NC(=O)[C@H](CO)NC2=O)C(=O)N[C@@H](CCCNC(=N)N)C(=O)N[C@@H](Cc2c[nH]cn2)C(=O)N[C@@H](CC(N)=O)C(=O)N[C@@H](Cc2c[nH]cn2)C(=O)N2CCC[C@H]2C(=O)N1)C(N)=O [gAusIA [A4S]] (H-SCCSRNPACRHNHPCV-NH2; disulfide 2-9, 3-15) | 70 ± 12.9
CC(C)[C@H](NC(=O)[C@@H]1CSSC[C@H](NC(=O)[C@@H](N)CO)C(=O)N[C@H]2CSSC[C@H](NC(=O)[C@H](C)NC(=O)[C@@H]3CCCN3C(=O)[C@H](CC(N)=O)NC(=O)[C@H](CCCNC(=N)N)NC2=O)C(=O)N[C@@H](CCCNC(=N)N)C(=O)N[C@@H](Cc2c[nH]cn2)C(=O)N[C@@H](CC(N)=O)C(=O)N[C@@H](Cc2c[nH]cn2)C(=O)N2CCC[C@H]2C(=O)N1)C(N)=O [rAusIA [∆4]] (H-SCCRNPACRHNHPCV-NH2; disulfide 2-14, 3-8) | 11 ± 0.24
CC(C)[C@H](NC(=O)[C@@H]1CSSC[C@H](NC(=O)[C@@H](N)CO)C(=O)N[C@H]2CSSC[C@H](NC(=O)[C@H](C)NC(=O)[C@@H]3CCCN3C(=O)[C@H](CC(N)=O)NC(=O)[C@H](CCCNC(=N)N)NC(=O)[C@H](CO)NC2=O)C(=O)N[C@@H](CCCNC(=N)N)C(=O)N[C@@H](Cc2c[nH]cn2)C(=O)N[C@@H](CC(N)=O)C(=O)N[C@@H](Cc2c[nH]cn2)C(=O)N2CCC[C@H]2C(=O)N1)C(N)=O [rAusIA [A4S]] (H-SCCSRNPACRHNHPCV-NH2; disulfide 2-15, 3-9) | 32 ± 7.3
CC[C@H](C)[C@@H]1NC(=O)[C@H](CC(N)=O)NC(=O)[C@@H]2CCCN2C(=O)[C@H](CC(N)=O)NC(=O)[C@H](CC(N)=O)NC(=O)[C@H](C(C)C)NC(=O)[C@H](CCCNC(=N)N)NC(=O)[C@@H]2CSSC[C@H](NC(=O)CNC(=O)[C@@H](N)CO)C(=O)N[C@@H](CSSC[C@@H](C(N)=O)NC1=O)C(=O)N[C@@H](CCCNC(=N)N)C(=O)N[C@@H](CC(N)=O)C(=O)N1CCC[C@H]1C(=O)N[C@@H](C)C(=O)N2 [gLsIA [S5R]] (H-SGCCRNPACRVNNPNIC-NH2; disulfide 3-9, 4-17) | 0.24 ± 0.04
